Reference: the supplement of paper PMC10307832

compound: Cn1nnc2c(C(N)=O)ncn2c1=O [Temozolomide] + N=C(N)NC(=N)NCCc1ccccc1 [Phenformin] (partner 250 µM); test: relative viability (nuclei count vs DMSO), 5 days (fraction); higher = more cells survive; conditions: first compound 0.2 µM
How it was run: (§1)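 One day after seeding in 1536-well plates, lung cancer cell lines were dosed by pin tool. Dosing was either single-drug or a fixed anchor-drug dose plus five library-drug doses (not always all listed) in √10 steps. After 5 days, nuclei were stained in one fix-and-stain step and counted on 4× images, and relative viability is the nuclei count of treated wells over that of vehicle wells, given as the median of duplicate plates.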

Cell Line | relative viability
201T | 0.491
A-427 | 0.314
ABC-1 | 0.241
BEN | 0.286
CAL-12T | 0.657
COR-L23 | 0.511
COR-L 105 | 0.452
ChaGo-K-1 | 0.595
EKVX | 0.185
EMC-BAC-2 | 0.604
EPLC-272H | 0.156
HARA | 0.446
HCC-15 | 0.502
NCI-H596 | 0.797
NCI-H1563 | 0.671

same assay, conditions: first compound 0.6325 µM

Cell Line | relative viability
201T | 0.449
A549 | 0.161
A-427 | 0.364
ABC-1 | 0.232
BEN | 0.288
CAL-12T | 0.612
COR-L23 | 0.475
COR-L 105 | 0.603
ChaGo-K-1 | 0.484
EKVX | 0.232
EMC-BAC-2 | 0.479
EPLC-272H | 0.305
H3255 | 0.385
HARA | 0.493
HCC-15 | 0.531
NCI-H596 | 0.827
NCI-H1563 | 0.689
NCI-H1623 | 0.646

same assay, conditions: first compound 2 µM

Cell Line | relative viability
201T | 0.497
A549 | 0.136
A-427 | 0.39
ABC-1 | 0.24
BEN | 0.229
CAL-12T | 0.529
COR-L23 | 0.437
COR-L 105 | 0.594
ChaGo-K-1 | 0.617
EKVX | 0.232
EMC-BAC-2 | 0.586
EPLC-272H | 0.332
H3255 | 0.344
HARA | 0.401
HCC-15 | 0.519
NCI-H596 | 0.658
NCI-H1563 | 0.668
NCI-H1623 | 0.521

same assay, conditions: first compound 6.325 µM

Cell Line | relative viability
201T | 0.376
A549 | 0.147
A-427 | 0.246
ABC-1 | 0.213
BEN | 0.27
CAL-12T | 0.574
COR-L23 | 0.462
COR-L 105 | 0.452
ChaGo-K-1 | 0.413
EKVX | 0.236
EMC-BAC-2 | 0.458
EPLC-272H | 0.461
H3255 | 0.403
HARA | 0.414
HCC-15 | 0.418
NCI-H596 | 0.659
NCI-H1563 | 0.602
NCI-H1623 | 0.563

same assay, conditions: first compound 20 µM

Cell Line | relative viability
201T | 0.456
A549 | 0.177
A-427 | 0.267
ABC-1 | 0.237
BEN | 0.26
CAL-12T | 0.558
COR-L23 | 0.428
COR-L 105 | 0.305
ChaGo-K-1 | 0.509
EKVX | 0.216
EMC-BAC-2 | 0.564
EPLC-272H | 0.28
H3255 | 0.185
HARA | 0.394
HCC-15 | 0.513
NCI-H596 | 0.787
NCI-H1563 | 0.643
NCI-H1623 | 0.309

compound: C[C@@H](C(=O)N[C@@H](C1CCCCC1)C(=O)N2CCC[C@H]2C(=O)N[C@@H]3[C@@H](CC4=CC=CC=C34)OCC#CC#CCO[C@@H]5CC6=CC=CC=C6[C@@H]5NC(=O)[C@@H]7CCCN7C(=O)[C@H](C8CCCCC8)NC(=O)[C@H](C)NC)NC [AZD5582] + CC(=O)c1c(C)c2cnc(Nc3ccc(N4CCNCC4)cn3)nc2n(C2CCCC2)c1=O [Palbociclib] (partner 0.5 µM); test: as above; conditions: first compound 0.001581 µM
How it was run: as §1

Cell Line | relative viability
201T | 0.375
A-427 | 0.462
ABC-1 | 0.658
BEN | 0.416
CAL-12T | 0.2
COR-L23 | 0.238
COR-L 105 | 0.383
ChaGo-K-1 | 0.882
EKVX | 0.378
EMC-BAC-2 | 0.472
EPLC-272H | 0.165
H3255 | 0.29
HARA | 0.257
HCC-15 | 0.501
NCI-H1648 | 0.264

same assay, conditions: first compound 0.005 µM

Cell Line | relative viability
201T | 0.357
A-427 | 0.473
ABC-1 | 0.834
BEN | 0.466
CAL-12T | 0.225
COR-L23 | 0.329
COR-L 105 | 0.394
ChaGo-K-1 | 0.943
EKVX | 0.425
EMC-BAC-2 | 0.527
H3255 | 0.306
HARA | 0.275
HCC-15 | 0.582
NCI-H1648 | 0.311

same assay, conditions: first compound 0.01581 µM

Cell Line | relative viability
201T | 0.316
A-427 | 0.528
ABC-1 | 0.492
BEN | 0.497
CAL-12T | 0.309
COR-L23 | 0.269
COR-L 105 | 0.415
ChaGo-K-1 | 0.921
EKVX | 0.298
EMC-BAC-2 | 0.503
EPLC-272H | 0.32
H3255 | 0.302
HARA | 0.233
HCC-15 | 0.615

same assay, conditions: first compound 0.05 µM

Cell Line | relative viability
201T | 0.43
A-427 | 0.495
ABC-1 | 0.625
BEN | 0.435
CAL-12T | 0.159
COR-L23 | 0.305
COR-L 105 | 0.452
ChaGo-K-1 | 1.01
EKVX | 0.393
EMC-BAC-2 | 0.513
EPLC-272H | 0.127
H3255 | 0.318
HARA | 0.318
HCC-15 | 0.309
NCI-H1648 | 0.274

compound: C[C@@H](C(=O)N[C@@H](C1CCCCC1)C(=O)N2CCC[C@H]2C(=O)N[C@@H]3[C@@H](CC4=CC=CC=C34)OCC#CC#CCO[C@@H]5CC6=CC=CC=C6[C@@H]5NC(=O)[C@@H]7CCCN7C(=O)[C@H](C8CCCCC8)NC(=O)[C@H](C)NC)NC [AZD5582] + COc1cccc2cc(-c3nc([C@H]4CC[C@H](C(=O)O)CC4)n4ncnc(N)c34)[nH]c12 [OSI-027] (partner 0.5 µM); test: as above; conditions: first compound 0.001581 µM
How it was run: as §1

Cell Line | relative viability
201T | 0.721
A-427 | 0.341
ABC-1 | 0.491
BEN | 0.295
CAL-12T | 0.239
COR-L23 | 0.799
COR-L 105 | 0.716
ChaGo-K-1 | 0.497
EKVX | 0.667
EMC-BAC-2 | 0.295
EPLC-272H | 0.121
H3255 | 0.627
HARA | 0.414
HCC-15 | 0.555
NCI-H1563 | 0.688
NCI-H1623 | 0.422

same assay, conditions: first compound 0.005 µM

Cell Line | relative viability
201T | 0.831
A-427 | 0.44
ABC-1 | 0.608
BEN | 0.301
CAL-12T | 0.339
COR-L23 | 0.721
COR-L 105 | 0.984
ChaGo-K-1 | 0.596
EKVX | 0.852
EMC-BAC-2 | 0.341
H3255 | 0.582
HARA | 0.544
HCC-15 | 0.617
NCI-H1563 | 0.709
NCI-H1623 | 0.407
NCI-H1648 | 0.266

same assay, conditions: first compound 0.01581 µM

Cell Line | relative viability
201T | 0.675
A-427 | 0.414
ABC-1 | 0.375
BEN | 0.349
CAL-12T | 0.281
COR-L23 | 0.768
COR-L 105 | 0.517
ChaGo-K-1 | 0.57
EKVX | 0.687
EMC-BAC-2 | 0.323
EPLC-272H | 0.274
H3255 | 0.514
HARA | 0.362
HCC-15 | 0.504
NCI-H596 | 0.614
NCI-H1563 | 0.731
NCI-H1623 | 0.457
NCI-H1648 | 0.228

same assay, conditions: first compound 0.05 µM

Cell Line | relative viability
201T | 0.492
A-427 | 0.31
ABC-1 | 0.488
BEN | 0.282
CAL-12T | 0.323
COR-L23 | 0.756
COR-L 105 | 0.671
ChaGo-K-1 | 0.545
EKVX | 0.778
EMC-BAC-2 | 0.273
EPLC-272H | 0.0867
H3255 | 0.544
HARA | 0.307
HCC-15 | 0.636
NCI-H596 | 0.334
NCI-H1563 | 0.679
NCI-H1623 | 0.432
NCI-H1648 | 0.301

compound: C[C@@H](C(=O)N[C@@H](C1CCCCC1)C(=O)N2CCC[C@H]2C(=O)N[C@@H]3[C@@H](CC4=CC=CC=C34)OCC#CC#CCO[C@@H]5CC6=CC=CC=C6[C@@H]5NC(=O)[C@@H]7CCCN7C(=O)[C@H](C8CCCCC8)NC(=O)[C@H](C)NC)NC [AZD5582] + N=C(N)NC(=N)NCCc1ccccc1 [Phenformin] (partner 250 µM); test: as above; conditions: first compound 0.001581 µM
How it was run: as §1

Cell Line | relative viability
201T | 0.459
A549 | 0.172
A-427 | 0.265
ABC-1 | 0.239
BEN | 0.278
CAL-12T | 0.354
COR-L23 | 0.42
COR-L 105 | 0.503
ChaGo-K-1 | 0.445
EKVX | 0.217
EMC-BAC-2 | 0.405
EPLC-272H | 0.0525
H3255 | 0.392
HARA | 0.415
HCC-15 | 0.391
NCI-H1563 | 0.641
NCI-H1623 | 0.565

same assay, conditions: first compound 0.005 µM

Cell Line | relative viability
201T | 0.478
A549 | 0.127
A-427 | 0.322
ABC-1 | 0.241
BEN | 0.249
CAL-12T | 0.27
COR-L23 | 0.418
COR-L 105 | 0.651
ChaGo-K-1 | 0.54
EKVX | 0.23
EMC-BAC-2 | 0.508
H3255 | 0.326
HARA | 0.501
HCC-15 | 0.437
NCI-H1563 | 0.665
NCI-H1623 | 0.61

same assay, conditions: first compound 0.01581 µM

Cell Line | relative viability
201T | 0.406
A549 | 0.152
A-427 | 0.248
ABC-1 | 0.23
BEN | 0.301
CAL-12T | 0.408
COR-L23 | 0.385
COR-L 105 | 0.392
ChaGo-K-1 | 0.4
EKVX | 0.196
EMC-BAC-2 | 0.418
EPLC-272H | 0.233
H3255 | 0.34
HARA | 0.493
HCC-15 | 0.31
NCI-H596 | 0.764
NCI-H1563 | 0.574
NCI-H1623 | 0.565

same assay, conditions: first compound 0.05 µM

Cell Line | relative viability
201T | 0.579
A549 | 0.278
A-427 | 0.206
ABC-1 | 0.251
BEN | 0.27
CAL-12T | 0.222
COR-L23 | 0.521
COR-L 105 | 0.496
ChaGo-K-1 | 0.513
EKVX | 0.228
EMC-BAC-2 | 0.335
EPLC-272H | 0.0492
H3255 | 0.353
HARA | 0.403
HCC-15 | 0.402
NCI-H596 | 0.217
NCI-H1563 | 0.627
NCI-H1623 | 0.46
